Test results taken from patent US9181255B2, “Fused heteroaromatic pyrrolidinones as SYK inhibitors” (Takeda Pharmaceutical Company Limited, priority 2009, dated 2015).

Molecular target: SYK (Homo sapiens, UniProt P43405)
Assay: SYK inhibition assay: SYK-mediated phosphorylation of FAM-labeled substrate (Caliper microfluidic)
Type: biochemical
Details: read-out: SYK Inhibition (pIC50) (converted)

SMILES	IC50
N[C@H]1CCCC[C@H]1Nc1nc(-c2cnn3ccccc23)c2c(c1F)CNC2=O [Example 31, 6-((1R,2S)-2-Aminocyclohexylamino)-7-fluoro-4-(pyrazolo[1,5-a]pyridin-3-yl)-1H-pyrrolo[3,4-c]pyridin-3(2H)-one]	2.51 nM
CC(C)C[C@@H](Nc1nc(-c2ccco2)c2c(c1F)CNC2=O)C(N)=O [Example 113, (R)-2-(7-Fluoro-4-(furan-2-yl)-3-oxo-2,3-dihydro-1H-pyrrolo[3,4-c]pyridin-6-ylamino)-4-methylpentanamide]	200 nM
C=CC(=O)c1c(N[C@@H]2CCCC[C@@H]2N)nc(Nc2cccc(C)c2)c2c1CNC2=O [Example 80, 7-Acryloyl-6-((1R,2S)-2-aminocyclohexylamino)-4-(m-tolylamino)-1H-pyrrolo[3,4-c]pyridin-3(2H)-one]	3160 nM
Cc1csc(-c2nc(N[C@@H]3CCCC[C@@H]3N)c(F)c3c2C(=O)NC3)c1 [Example 105, 6-((1R,2S)-2-Aminocyclohexylamino)-7-fluoro-4-(4-methylthiophen-2-yl)-1H-pyrrolo[3,4-c]pyridin-3(2H)-one]	1 nM
N[C@H]1COCC[C@H]1Nc1nc(-c2cnn(C(F)F)c2)c2c(c1F)CNC2=O [Example 125, 6-((3R,4R)-3-Aminotetrahydro-2H-pyran-4-ylamino)-4-(1-(difluoromethyl)-1H-pyrazol-4-yl)-7-fluoro-1H-pyrrolo[3,4-c]pyridin-3(2H)-one]	10 nM
CC(C)Cn1cc(-c2nc(N[C@@H]3CCCC[C@@H]3N)nc3c2C(=O)NC3)cn1 [Example 15, 2-((1R,2S)-2-Aminocyclohexylamino)-4-(1-isobutyl-1H-pyrazol-4-yl)-6,7-dihydro-5H-pyrrolo[3,4-c]pyrimidin-5-one]	1000 nM
N[C@H]1CCCC[C@H]1Nc1nc2c(c(-c3csc4ccccc34)n1)C(=O)NC2 [Example 17, 2-((1R,2S)-2-Aminocyclohexylamino)-4-(benzo[b]thiophen-3-yl)-6,7-dihydro-5H-pyrrolo[3,4-c]pyrimidin-5-one]	39.8 nM
Cn1cc(-c2nc(N[C@@H]3CCCC[C@@H]3N)cc3c2C(=O)NC3)cn1 [Example 26, 6-((1R,2S)-2-Aminocyclohexylamino)-4-(1-methyl-1H-pyrazol-4-yl)-1H-pyrrolo[3,4-c]pyridin-3(2H)-one]	31.6 nM
Cn1cc(-c2nc(N[C@@H]3CCCC(F)(F)[C@@H]3N)c(F)c3c2C(=O)NC3)cn1 (relative stereo) [Example 67, 6-(cis-2-Amino-3,3-difluorocyclohexylamino)-7-fluoro-4-(1-methyl-1H-pyrazol-4-yl)-1H-pyrrolo[3,4-c]pyridin-3(2H)-one]	39.8 nM
N[C@@H]1[C@H](Nc2nc(-c3cnn(C4CC4)c3)c3c(c2F)CNC3=O)CCCC1(F)F (relative stereo) [Example 69, 6-(cis-2-amino-3,3-difluorocyclohexylamino)-4-(1-cyclopropyl-1H-pyrazol-4-yl)-7-fluoro-1H-pyrrolo[3,4-c]pyridin-3(2H)-one]	158 nM
N[C@H]1CCCC[C@H]1Nc1nc2c(c(Nc3cccc(F)c3)n1)C(=O)NC2 [Example 2, 2-((1R,2S)-2-Aminocyclohexylamino)-4-(3-fluorophenylamino)-6,7-dihydro-5H-pyrrolo[3,4-c]pyrimidin-5-one]	126 nM
N[C@H]1CCCC[C@H]1Nc1nc(-c2ccsc2)c2c(c1F)CNC2=O [Example 106, 6-((1R,2S)-2-Aminocyclohexylamino)-7-fluoro-4-(thiophen-3-yl)-1H-pyrrolo[3,4-c]pyridin-3(2H)-one]	2.51 nM
Cc1cccc(Nc2nc(N[C@@H]3CCCC[C@@H]3N)c(-c3ccnn3C)c3c2C(=O)NC3)c1 [Example 84, 6-((1R,2S)-2-Aminocyclohexylamino)-7-(1-methyl-1H-pyrazol-5-yl)-4-(m-tolylamino)-1H-pyrrolo[3,4-c]pyridin-3(2H)-one]	20 nM
Cc1c(N[C@@H]2CCCC[C@@H]2N)nc(-c2cnn(C)c2)c2c1CNC2=O [Example 90, 6-((1R,2S)-2-Aminocyclohexylamino)-7-methyl-4-(1-methyl-1H-pyrazol-4-yl)-1H-pyrrolo[3,4-c]pyridin-3(2H)-one]	10 nM
CC(C)C[C@@H](Nc1nc(-c2ccc(C#N)s2)c2c(c1F)CNC2=O)C(N)=O [Example 116, (R)-2-(4-(5-Cyanothiophen-2-yl)-7-fluoro-3-oxo-2,3-dihydro-1H-pyrrolo[3,4-c]pyridin-6-ylamino)-4-methylpentanamide]	7.94 nM
Cc1cc(Nc2nc(N[C@@H]3CCCC[C@@H]3N)cc3c2C(=O)NC3)ccc1F [Example 24, 6-((1R,2S)-2-Aminocyclohexylamino)-4-(4-fluoro-3-methylphenylamino)-1H-pyrrolo[3,4-c]pyridin-3(2H)-one]	25.1 nM
CCn1cc(-c2nc(N[C@@H]3CCCC[C@@H]3N)c(F)c3c2C(=O)NC3)cn1 [Example 60, 6-((1R,2S)-2-Aminocyclohexylamino)-4-(1-ethyl-1H-pyrazol-4-yl)-7-fluoro-1H-pyrrolo[3,4-c]pyridin-3(2H)-one]	15.8 nM
CCOC[C@H](N)CNc1nc(Nc2cccc(C)c2)c2c(c1F)CNC2=O [Example 55, (R)-6-(2-Amino-3-ethoxypropylamino)-7-fluoro-4-(m-tolylamino)-1H-pyrrolo[3,4-c]pyridin-3(2H)-one]	15.8 nM

SMILES	IC50
Cc1ncc(-c2nc(N[C@@H]3CCOC[C@@H]3N)c(F)c3c2C(=O)NC3)s1 [Example 133, 6-((3R,4R)-3-Aminotetrahydro-2H-pyran-4-ylamino)-7-fluoro-4-(2-methylthiazol-5-yl)-1H-pyrrolo[3,4-c]pyridin-3(2H)-one]	25.1 nM
CS(=O)(=O)c1cccc(Nc2nc(N[C@@H]3CCCC[C@@H]3N)cc3c2C(=O)NC3)c1 [Example 33, 6-((1R,2S)-2-Aminocyclohexylamino)-4-(3-(methylsulfonyl)phenylamino)-1H-pyrrolo[3,4-c]pyridin-3(2H)-one]	50.1 nM
N[C@H]1CCCC[C@H]1Nc1nc(-c2coc3ccccc23)c2c(c1F)CNC2=O [Example 50, 6-((1R,2S)-2-Aminocyclohexylamino)-4-(benzofuran-3-yl)-7-fluoro-1H-pyrrolo[3,4-c]pyridin-3(2H)-one]	2.51 nM
CC(C)C[C@@H](Nc1cc2c(c(Nc3cccc(S(C)(=O)=O)c3)n1)C(=O)NC2)C(N)=O [Example 35, (R)-4-Methyl-2-(4-(3-(methylsulfonyl)phenylamino)-3-oxo-2,3-dihydro-1H-pyrrolo[3,4-c]pyridin-6-ylamino)pentanamide]	50.1 nM
N[C@H]1CCCC[C@H]1Nc1nc2c(c(-c3ccn[nH]3)n1)C(=O)NC2 [Example 48, 2-((1R,2S)-2-Aminocyclohexylamino)-4-(1H-pyrazol-5-yl)-6,7-dihydro-5H-pyrrolo[3,4-c]pyrimidin-5-one]	794 nM
Cn1cc(-c2nc(N[C@@H]3CCOC[C@@H]3N)cc3c2C(=O)NC3)cn1 [Example 27, 6-((3R,4R)-3-Aminotetrahydro-2H-pyran-4-ylamino)-4-(1-methyl-1H-pyrazol-4-yl)-1H-pyrrolo[3,4-c]pyridin-3(2H)-one]	39.8 nM
Cc1cccc(Nc2nc(NCC(N)C(F)(F)F)cc3c2C(=O)NC3)c1 (centres unmarked) [Example 56, 6-(2-Amino-3,3,3-trifluoropropylamino)-4-(m-tolylamino)-1H-pyrrolo[3,4-c]pyridin-3(2H)-one]	2510 nM
Cn1cc(-c2nc(N[C@@H]3CCCC[C@@H]3N)c(F)c3c2C(=O)NC3(C)C)cn1 [Example 120, 6-((1R,2S)-2-Aminocyclohexylamino)-7-fluoro-1,1-dimethyl-4-(1-methyl-1H-pyrazol-4-yl)-1H-pyrrolo[3,4-c]pyridin-3(2H)-one]	251 nM
N[C@H]1CCCC[C@H]1Nc1nc(-c2cnc3ccccn23)c2c(c1F)CNC2=O [Example 51, 6-((1R,2S)-2-aminocyclohexylamino)-7-fluoro-4-(imidazo[1,2-a]pyridin-3-yl)-1H-pyrrolo[3,4-c]pyridin-3(2H)-one]	63.1 nM
COC[C@H](N)CNc1nc(Nc2cccc(C)c2)c2c(c1F)CNC2=O [Example 79, (R)-6-(2-Amino-3-methoxypropylamino)-7-fluoro-4-(m-tolylamino)-1H-pyrrolo[3,4-c]pyridin-3(2H)-one]	20 nM
N[C@H]1CCCC[C@H]1Nc1nc2c(c(-c3cc4ccccc4[nH]3)n1)C(=O)NC2 [Example 47, 2-((1R,2S)-2-Aminocyclohexylamino)-4-(1H-indol-2-yl)-6,7-dihydro-5H-pyrrolo[3,4-c]pyrimidin-5-one]	2.51 nM
Cn1cc(-c2nc(N[C@@H]3CCCC[C@@H]3N)c(Br)c3c2C(=O)NC3)cn1 [Example 99, 6-((1R,2S)-2-Aminocyclohexylamino)-7-bromo-4-(1-methyl-1H-pyrazol-4-yl)-1H-pyrrolo[3,4-c]pyridin-3(2H)-one]	3.16 nM
CC(C)C[C@@H](Nc1nc(-c2cnn(C3CC3)c2)c2c(c1F)CNC2=O)C(N)=O [Example 72, (R)-2-(4-(1-Cyclopropyl-1H-pyrazol-4-yl)-7-fluoro-3-oxo-2,3-dihydro-1H-pyrrolo[3,4-c]pyridin-6-ylamino)-4-methylpentanamide]	31.6 nM
CCN1CCN(c2nc3c(c(Nc4cccc(C)c4)n2)C(=O)NC3)CC1 [Example 9, 2-(4-Ethylpiperazin-1-yl)-4-(m-tolylamino)-6,7-dihydro-5H-pyrrolo[3,4-d]pyrimidin-5-one]	7940 nM
Cn1cc(-c2nc(N3CCC[C@H](N)C3)c(F)c3c2C(=O)NC3)cn1 [Example 96, (S)-6-(3-Aminopiperidin-1-yl)-7-fluoro-4-(1-methyl-1H-pyrazol-4-yl)-1H-pyrrolo[3,4-c]pyridin-3(2H)-one]	200 nM
N[C@@H]1[C@H](Nc2nc(-c3cnn(C(F)F)c3)c3c(c2F)CNC3=O)CCCC1(F)F (relative stereo) [Example 68, 6-(cis-2-Amino-3,3-difluorocyclohexylamino)-4-(1-(difluoromethyl)-1H-pyrazol-4-yl)-7-fluoro-1H-pyrrolo[3,4-c]pyridin-3(2H)-one]	100 nM
CC(C)C[C@@H](Nc1nc(-c2ccoc2)c2c(c1F)CNC2=O)C(N)=O [Example 114, (R)-2-(7-Fluoro-4-(furan-3-yl)-3-oxo-2,3-dihydro-1H-pyrrolo[3,4-c]pyridin-6-ylamino)-4-methylpentanamide]	251 nM
